In test [1] the test system is HCV genotype 1b (Con1) replicon in HUH-7 cells. In words: HCV replicon luciferase reporter assay, genotype 1b. The format is cell-based. Particulars: Hepatitis C virus, Huh-7, 72 h, HCV genotype 1b replicon luciferase, 3 days incubation. The method in brief:
(§1)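 Replicon inhibition for both genotypes was measured as Renilla luciferase signal (EnduRen, 7.5 μM final, 2 h) after 3-day, 37° C exposure of replicon-bearing HUH-7 cells in 4% FCS DMEM, 0.5% DMSO. The 1b construct carries S1179I; the 1a H77 construct carries P1496L and S2204I. Twenty-point, 3-fold dilutions were fitted four-parametrically for EC50, and CC50 was taken from multiplexed Cell Titer-Blue.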
On the technique in general: In antiviral work, replicon cells carry a viral genome segment that copies itself.

The test system of test [2] is HCV genotype 1a (H77 strain) replicon in HUH-7 cells. Kind of test: HCV replicon luciferase reporter assay, genotype 1a. The class given is cell-based. Particulars: Hepatitis C virus, Huh-7, 72 h, HCV genotype 1a replicon luciferase, 3 days incubation. The essentials: as §1

Results on twelve compounds are retold here after patent US9499550B2 (BRISTOL-MYERS SQUIBB COMPANY, priority 2012, dated 2016).

Like-named read-outs stand apart in the source and are kept apart here.

`COc1cc2ccnc(O[C@@H]3C[C@H]4C(=O)N[C@]5(C(=O)NS(=O)(=O)C6CC6)C[C@H]5/C=C\CC[C@@H](C)C[C@@H](C)[C@H](NC(=O)OC(C)(C)C(C)(F)F)C(=O)N4C3)c2cc1OC` [Compound 5389, 3,3-difluoro-2-methylbutan-2-yl((2R,6S,7R,9R,13aS,14aR,16aS,Z)-14a-((cyclopropylsulfonyl)carbamoyl)-2-((6,7-dimethoxyisoquinolin-1-yl)oxy)-7,9-dimethyl-5,16-dioxo-1,2,3,5,6,7,8,9,10,11,13a,14,14a,15,16,16a-hexadecahydrocyclopropa[e]pyrrolo[1,2-a][1,4]diazacyclopentadecin-6-yl)carbamate]: the EC50 in test [1] (read-out: LE_1b (EC50, range)) is 1.01 to 5 nM; in test [2] (read-out: LE_1a (EC50, range)) it was 1.01 to 5 nM.
Take `COc1cc2ccnc(O[C@@H]3C[C@H]4C(=O)N[C@]5(C(=O)NS(=O)(=O)C6CC6)C[C@H]5/C=C\CC[C@@H](C)C[C@@H](C)[C@H](NC(=O)OC(C)(C)C)C(=O)N4C3)c2cc1OC` [Compound 5391, tert-butyl ((2R,6S,7R,9R,13aS,14aR,16aS,Z)-14a-((cyclopropylsulfonyl)carbamoyl)-2-((6,7-dimethoxyisoquinolin-1-yl)oxy)-7,9-dimethyl-5,16-dioxo-1,2,3,5,6,7,8,9,10,11,13a,14,14a,15,16,16a-hexadecahydrocyclopropa[e]pyrrolo[1,2-a][1,4]diazacyclopentadecin-6-yl)carbamate]: the EC50 fell in the range of 1.01 to 5 nM in test [1] (read-out: LE_1b (EC50, range)) and 1.01 to 5 nM in test [2] (read-out: LE_1a (EC50, range)).
As to `CCOc1cc2ccnc(O[C@@H]3C[C@H]4C(=O)N[C@]5(C(=O)NS(=O)(=O)C6(C)CC6)C[C@H]5/C=C\CC[C@@H](C)C[C@@H](C)[C@H](NC(=O)OC(C)(C)C)C(=O)N4C3)c2cc1F` [Compound 5393, tert-butyl ((2R,6S,7R,9R,13aS,14aR,16aS,Z)-2-((6-ethoxy-7-fluoroisoquinolin-1-yl)oxy)-7,9-dimethyl-14a-(((1-methylcyclopropyl)sulfonyl)carbamoyl)-5,16-dioxo-1,2,3,5,6,7,8,9,10,11,13a,14,14a,15,16,16a-hexadecahydrocyclopropa[e]pyrrolo[1,2-a][1,4]diazacyclopentadecin-6-yl)carbamate], the half-maximal effective concentration (EC50) in test [1] (read-out: LE_1b (EC50)) is 0.55 nM; in test [1] (read-out: LE_1b (EC50, range)) it was 0.51 to 1 nM; in test [2] (read-out: LE_1a (EC50)), 0.92 nM; in test [2] (read-out: LE_1a (EC50, range)) it was 0.51 to 1 nM.
In the case of `CCOc1cc2ccnc(O[C@@H]3C[C@H]4C(=O)N[C@]5(C(=O)NS(=O)(=O)C6(C)CC6)C[C@H]5/C=C\CC[C@@H](C)C[C@@H](C)[C@H](NC(=O)OC(C)(C)C(F)(F)F)C(=O)N4C3)c2cc1F` [Compound 5395, 1,1,1-trifluoro-2-methylpropan-2-yl((2R,6S,7R,9R,13aS,14aR,16aS,Z)-2-((6-ethoxy-7-fluoroisoquinolin-1-yl)oxy)-7,9-dimethyl-14a-(((1-methylcyclopropyl)sulfonyl)carbamoyl)-5,16-dioxo-1,2,3,5,6,7,8,9,10,11,13a,14,14a,15,16,16a-hexadecahydrocyclopropa[e]pyrrolo[1,2-a][1,4]diazacyclopentadecin-6-yl)carbamate], the 50% effective concentration (EC50) is 0.51 to 1 nM in test [1] (read-out: LE_1b (EC50, range)) and 1.01 to 5 nM in test [2] (read-out: LE_1a (EC50, range)).
With `CCOc1cc2ccnc(O[C@@H]3C[C@H]4C(=O)N[C@]5(C(=O)NS(=O)(=O)C6(C)CC6)C[C@H]5/C=C\CC[C@@H](C)C[C@@H](C)[C@H](NC(=O)OC(C)(C)C(C)(F)F)C(=O)N4C3)c2cc1F` [Compound 5397, 3,3-difluoro-2-methylbutan-2-yl((2R,6S,7R,9R,13aS,14aR,16aS,Z)-2-((6-ethoxy-7-fluoroisoquinolin-1-yl)oxy)-7,9-dimethyl-14a-(((1-methylcyclopropyl)sulfonyl)carbamoyl)-5,16-dioxo-1,2,3,5,6,7,8,9,10,11,13a,14,14a,15,16,16a-hexadecahydrocyclopropa[e]pyrrolo[1,2-a][1,4]diazacyclopentadecin-6-yl)carbamate], the concentration giving a half-maximal response (EC50) was in the range of 0.51 to 1 nM in test [1] (read-out: LE_1b (EC50, range)) and 1.01 to 5 nM in test [2] (read-out: LE_1a (EC50, range)).
The matching figures for `CCOc1cc2ccnc(O[C@@H]3C[C@H]4C(=O)N[C@]5(C(=O)NS(=O)(=O)C6CC6)C[C@H]5/C=C\CC[C@@H](C)C[C@@H](C)[C@H](NC(=O)OC(C)(C)C)C(=O)N4C3)c2cc1F` [Compound 5399, tert-butyl ((2R,6S,7R,9R,13aS,14aR,16aS,Z)-14a-((cyclopropylsulfonyl)carbamoyl)-2-((6-ethoxy-7-fluoroisoquinolin-1-yl)oxy)-7,9-dimethyl-5,16-dioxo-1,2,3,5,6,7,8,9,10,11,13a,14,14a,15,16,16a-hexadecahydrocyclopropa[e]pyrrolo[1,2-a][1,4]diazacyclopentadecin-6-yl)carbamate]: 0.1 to 0.5 nM and 0.51 to 1 nM.
The matching figures for `CCOc1cc2ccnc(O[C@@H]3C[C@H]4C(=O)N[C@]5(C(=O)NS(=O)(=O)C6CC6)C[C@H]5/C=C\CC[C@@H](C)C[C@@H](C)[C@H](NC(=O)OC(C)(C)C(F)(F)F)C(=O)N4C3)c2cc1F` [Compound 5401, 1,1,1-trifluoro-2-methylpropan-2-yl((2R,6S,7R,9R,13aS,14aR,16aS,Z)-14a-((cyclopropylsulfonyl)carbamoyl)-2-((6-ethoxy-7-fluoroisoquinolin-1-yl)oxy)-7,9-dimethyl-5,16-dioxo-1,2,3,5,6,7,8,9,10,11,13a,14,14a,15,16,16a-hexadecahydrocyclopropa[e]pyrrolo[1,2-a][1,4]diazacyclopentadecin-6-yl)carbamate]: 0.1 to 0.5 nM and 1.01 to 5 nM.
In the case of `CCOc1cc2ccnc(O[C@@H]3C[C@H]4C(=O)N[C@]5(C(=O)NS(=O)(=O)C6CC6)C[C@H]5/C=C\CC[C@@H](C)C[C@@H](C)[C@H](NC(=O)OC(C)(C)C(C)(F)F)C(=O)N4C3)c2cc1F` [Compound 5403, 3,3-difluoro-2-methylbutan-2-yl((2R,6S,7R,9R,13aS,14aR,16aS,Z)-14a-((cyclopropylsulfonyl)carbamoyl)-2-((6-ethoxy-7-fluoroisoquinolin-1-yl)oxy)-7,9-dimethyl-5,16-dioxo-1,2,3,5,6,7,8,9,10,11,13a,14,14a,15,16,16a-hexadecahydrocyclopropa[e]pyrrolo[1,2-a][1,4]diazacyclopentadecin-6-yl)carbamate], the EC50 in test [1] (read-out: LE_1b (EC50, range)) lay within 0.1 to 0.5 nM; in test [2] (read-out: LE_1a (EC50, range)), 0.51 to 1 nM.
`CCOc1cc2ccnc(O[C@@H]3C[C@H]4C(=O)N[C@]5(C(=O)NS(=O)(=O)C6CC6)C[C@H]5/C=C\CC[C@@H](C)C[C@@H](CC)[C@H](NC(=O)OC(C)(C)C)C(=O)N4C3)c2cc1F` [Compound 5405, tert-butyl ((2R,6S,7R,9R,13aS,14aR,16aS,Z)-14a-((cyclopropylsulfonyl)carbamoyl)-2-((6-ethoxy-7-fluoroisoquinolin-1-yl)oxy)-7-ethyl-9-methyl-5,16-dioxo-1,2,3,5,6,7,8,9,10,11,13a,14,14a,15,16,16a-hexadecahydrocyclopropa[e]pyrrolo[1,2-a][1,4]diazacyclopentadecin-6-yl)carbamate]: the EC50 is 0.51 to 1 nM in test [1] (read-out: LE_1b (EC50, range)) and 1.01 to 5 nM in test [2] (read-out: LE_1a (EC50, range)).
As for `CCOc1cc2ccnc(O[C@@H]3C[C@H]4C(=O)N[C@]5(C(=O)NS(=O)(=O)C6CC6)C[C@H]5/C=C\CC[C@@H](C)C[C@@H](CC)[C@H](NC(=O)OC(C)(C)C(F)(F)F)C(=O)N4C3)c2cc1F` [Compound 5407, 1,1,1-trifluoro-2-methylpropan-2-yl((2R,6S,7R,9R,13aS,14aR,16aS,Z)-14a-((cyclopropylsulfonyl)carbamoyl)-2-((6-ethoxy-7-fluoroisoquinolin-1-yl)oxy)-7-ethyl-9-methyl-5,16-dioxo-1,2,3,5,6,7,8,9,10,11,13a,14,14a,15,16,16a-hexadecahydrocyclopropa[e]pyrrolo[1,2-a][1,4]diazacyclopentadecin-6-yl)carbamate], the EC50 in test [1] (read-out: LE_1b (EC50, range)) lay within 0.51 to 1 nM; in test [2] (read-out: LE_1a (EC50, range)), 1.01 to 5 nM.
Turning to `CCOc1cc2ccnc(O[C@@H]3C[C@H]4C(=O)N[C@]5(C(=O)NS(=O)(=O)C6CC6)C[C@H]5/C=C\CC[C@@H](C)C[C@@H](CC)[C@H](NC(=O)OC(C)(C)C(C)(F)F)C(=O)N4C3)c2cc1F` [Compound 5409, 3,3-difluoro-2-methylbutan-2-yl((2R,6S,7R,9R,13aS,14aR,16aS,Z)-14a-((cyclopropylsulfonyl)carbamoyl)-2-((6-ethoxy-7-fluoroisoquinolin-1-yl)oxy)-7-ethyl-9-methyl-5,16-dioxo-1,2,3,5,6,7,8,9,10,11,13a,14,14a,15,16,16a-hexadecahydrocyclopropa[e]pyrrolo[1,2-a][1,4]diazacyclopentadecin-6-yl)carbamate], the EC50 in test [1] (read-out: LE_1b (EC50, range)) was in the range of 0.51 to 1 nM; in test [2] (read-out: LE_1a (EC50, range)) it was 1.01 to 5 nM.
With `CCOc1cc2ccnc(O[C@@H]3C[C@H]4C(=O)N[C@]5(C(=O)NS(=O)(=O)C6(CF)CC6)C[C@H]5/C=C\CC[C@H](C)C[C@@H](C)[C@H](NC(=O)OC(C)(C)C)C(=O)N4C3)c2cc1F` [Compound 5410, tert-butyl ((2R,6S,7R,9S,13aS,14aR,16aS,Z)-2-((6-ethoxy-7-fluoroisoquinolin-1-yl)oxy)-14a-(((1-(fluoromethyl)cyclopropyl)sulfonyl)carbamoyl)-7,9-dimethyl-5,16-dioxo-1,2,3,5,6,7,8,9,10,11,13a,14,14a,15,16,16a-hexadecahydrocyclopropa[e]pyrrolo[1,2-a][1,4]diazacyclopentadecin-6-yl)carbamate], the 50% effective concentration (EC50) in test [1] (read-out: LE_1b (EC50, range)) lay in the range of 1.01 to 5 nM; in test [2] (read-out: LE_1a (EC50, range)), 5.01 to 35 nM.

By EC50 is commonly meant the concentration giving half of the maximal effect.
